Structures can show the parent of a compound that is named as a salt.
What was measured:
[1] = system: Bacillus subtilis A.T.C.C. 6633; test: standard disc plate microbiological assay; type: cell-based; settings: against the standard antibiotic base (1000 mcg/mg)
Description: The assay is a standard disc plate assay using Difco Antibiotic Medium No. 5 and Bacillus subtilis A.T.C.C. 6633 as the test organism. The physical conditions of the test are substantially those described for neomycin (Grove and Randall), Assay Methods of Antibiotics published by Medical Encyclopedia Incorporated (1955). The assay is run against a standard preparation of Antibiotic G-418 having a defined potency of 1000 mcg/mg. […] The standard antibiotic sulfate salt assays about 750 mcg/mg. against the standard antibiotic base.

E. Histolytica = test: Oral activity against experimental cecal E. Histolytica infections in rats; type: in vivo, male Royal Hart rats; settings: for A.D.I. (average degree of infection): scale 0 to 4, controls averaged 2.2
Description: Table VII and Table VIII set forth in vivo test results which illustrate the antiprotozoal activity of Antibiotic G-418. The host for the tests were recently weaned male Royal Hart rats (3-4 weeks old) weighing about 50-70 g. The test procedure is a modification of one described by R. J. Schnitzer on pages 355-443 in Experimental Chemotherapy, Vol. 1, Academic Press, New York (1963).
*A.D.I. -- defined as the average degree of infection based upon gross
observations of pathological changes in the cecum and microscopic
observations of the number of amoebae found. These observations are
recorded on a scale of from zero to four, zero representing a
substantially normal cecum. Untreated but infected controls range from
about two to four. In the data set forth the controls averaged 2.2.

SMILES | potency of standard antibiotic sulfate salt [1] | Parasitological Cure Negative/Total (E. Histolytica; oral 3.5 mg/kg/day, 3 days) | A.D.I. (average degree of infection) (E. Histolytica; oral 3.5 mg/kg/day, 3 days) | Parasitological Cure Negative/Total (E. Histolytica; oral 3.5 mg/kg/day, 6 days) | A.D.I. (average degree of infection) (E. Histolytica; oral 3.5 mg/kg/day, 6 days) | Parasitological Cure Negative/Total (E. Histolytica; oral 6.5 mg/kg/day, 1 day) | A.D.I. (average degree of infection) (E. Histolytica; oral 6.5 mg/kg/day, 1 day) | Parasitological Cure Negative/Total (E. Histolytica; oral 6.5 mg/kg/day, 3 days) | A.D.I. (average degree of infection) (E. Histolytica; oral 6.5 mg/kg/day, 3 days) | Parasitological Cure Negative/Total (E. Histolytica; oral 6.5 mg/kg/day, 6 days) | A.D.I. (average degree of infection) (E. Histolytica; oral 6.5 mg/kg/day, 6 days) | Parasitological Cure Negative/Total (E. Histolytica; oral 10 mg/kg/day, 1 day) | A.D.I. (average degree of infection) (E. Histolytica; oral 10 mg/kg/day, 1 day) | Parasitological Cure Negative/Total (E. Histolytica; oral 10 mg/kg/day, 3 days) | A.D.I. (average degree of infection) (E. Histolytica; oral 10 mg/kg/day, 3 days) | Parasitological Cure Negative/Total (E. Histolytica; oral 12 mg/kg/day, 6 days) | A.D.I. (average degree of infection) (E. Histolytica; oral 12 mg/kg/day, 6 days) | Parasitological Cure Negative/Total (E. Histolytica; oral 25 mg/kg/day, 6 days) | A.D.I. (average degree of infection) (E. Histolytica; oral 25 mg/kg/day, 6 days)
CN[C@@H]1[C@@H](O)[C@@H](O[C@@H]2[C@@H](O)[C@H](O[C@H]3O[C@H]([C@@H](C)O)[C@@H](O)[C@H](O)[C@H]3N)[C@@H](N)C[C@H]2N)OC[C@]1(C)O [standard antibiotic sulfate salt] | about 750 mcg/mg | – | – | – | – | – | – | – | – | – | – | – | – | – | – | – | – | – | –
NC[C@@H]1O[C@H](O[C@H]2[C@@H](O)[C@H](O[C@@H]3[C@@H](O)[C@H](N)C[C@H](N)[C@H]3O[C@H]3O[C@H](CO)[C@@H](O)[C@H](O)[C@H]3N)O[C@@H]2CO)[C@H](N)[C@@H](O)[C@@H]1O [Paromomycin] | – | 1/7 | 1.9 | 1/6 | 1.5 | 0/4 | 1.0 | 1/5 | 1.0 | 2/4 | 1.3 | 0/7 | 2.1 | 2/6 | 1.0 | 4/8 | 0.8 | 6/7 | 0

— patent publication US3997403A, “Antibiotic G-418 and the production thereof” (Schering Corporation, priority 1975, dated 1976)
